The test system of assay [1] is HCV replicon in Huh7 cells. The assay can be described thus: microbe, parasite or virus in culture. It is filed as cell-based, strain 1b. The settings on record: Hepatitis C virus, Huh-7, 96 h; Huh7 cells expressing HCV replicon, 4 days; activity range class. From the text: Generation of HCV Replicon
This system enabled us to evaluate the effects of our HCV Protease compounds on HCV RNA replication. Briefly, using the HCV strain 1b sequence described in the Lohmann paper (Assession number: AJ238799), an HCV cDNA was generated encoding the 5′ internal ribosome entry site (IRES), the neomycin resistance gene, the EMCV (encephalomyocarditis viurs)-IRES and the HCV nonstructural proteins, NS3-NS5B, and 3′ non-translated region (NTR). In vitro transcripts of the cDNA were transfected into the human hepatoma cell line, Huh7. […] Resulting cell lines were characterized for positive and negative strand RNA production and protein production over time.
Huh7 cells, constitutively expressing the HCV replicon, were grown in Dulbecco's Modified Eagle Media (DMEM) containing 10% Fetal calf serum (FCS) and 1 mg/ml G418 (Gibco-BRL). Cells were seeded the night before (1.5×10^4 cells/well) in 96-well tissue-culture sterile plates. Compound and no compound controls were prepared in DMEM containing 4% FCS, 1:100 Penicillin/Streptomysin, 1:100 L-glutamine and 5% DMSO in the dilution plate (0.5% DMSO final concentration in the assay). Compound/DMSO mixes were added to the cells and incubated for 4 days at 37° C. After 4 days, plates were rinsed thoroughly with Phosphate-Buffered Saline (PBS) (3 times 150 μl). The cells were lysed with 25 μl of a lysis assay reagent containing the FRET peptide (RET S1, as described for the in vitro enzyme assay). The lysis assay reagent was made from 5× cell Luciferase cell culture lysis reagent (Promega #E153A) diluted to 1× with distilled water, NaCl added to 150 mM final, the FRET peptide diluted to 10 μM final from a 2 mM stock in 100% DMSO. The plate was then placed into the Cytofluor 4000 instrument which had been set to 340 nm excitation/490 nm emission, automatic mode for 21 cycles and the plate read in a kinetic mode. EC50 determinations were carried out as described for the IC50 determinations. […]
The percentage inhibition was calculated using the formula below: […]
The values were graphed and analyzed using XLFit to obtain the EC50 value.
Background: A replicon is a self-replicating genome or part of one, used to study replication in cells.

Assay [2] has as its target T1, HCV NS3/4A protease complex (BMS strain) (UniProt P27958, C1454S/C1711G, species not given).
T1 construct: for H77 and J4L6S; fused on or other part: Three-lysine solubilising tail at the C-terminus of NS4A
As to the kind of experiment: Recombinant HCV NS3/4A protease complex FRET peptide assay. It is filed as biochemical, Hepatitis C virus (HCV), genotype 1a. As to conditions: NS3/4A BMS strain, activity range class. An excerpt:
Recombinant HCV NS3/4A Protease Complex FRET Peptide Assay
Serum from an HCV-infected patient was obtained from Dr. T. Wright, San Francisco Hospital. An engineered full-length cDNA (compliment deoxyribonucleic acid) template of the HCV genome (BMS strain) was constructed from DNA fragments obtained by reverse transcription-PCR (RT-PCR) of serum RNA (ribonucleic acid) and using primers selected on the basis of homology between other genotype 1a strains.
The H77 and J4L6S strains were used for production of recombinant NS3/4A protease complexes. […] Briefly, a three-lysine solubilizing tail was added at the 3′-end of the NS4A coding region. […] Briefly, the NS3/4A protease complex expression was induced with 0.5 millimolar (mM) Isopropyl β-D-1-thiogalactopyranoside (IPTG) for 22 hours (h) at 20° C. […] The cells were resuspended in lysis buffer (10 mL/g) consisting of 25 mM N-(2-Hydroxyethyl)piperazine-N′-(2-Ethane Sulfonic acid) (HEPES), pH 7.5, 20% glycerol, 500 mM Sodium Chloride (NaCl), 0.5% Triton X-100, 1 microgram/milliliter (“μg/mL”) lysozyme, 5 mM Magnesium Chloride (MgCl2), 1 μg/ml DnaseI, 5 mM β-Mercaptoethanol (βME), Protease inhibitor—Ethylenediamine Tetraacetic acid (EDTA) free (Roche), homogenized and incubated for 20 minutes (min) at 4° C. The homogenate was sonicated and clarified by ultra-centrifugation at 235000 g for 1 h at 4° C. Imidazole was added to the supernatant to a final concentration of 15 mM and the pH adjusted to 8.0. The crude protein extract was loaded on a Nickel—Nitrilotriacetic acid (Ni-NTA) column pre-equilibrated with buffer B (25 mM HEPES, pH 8.0, 20% glycerol, 500 mM NaCl, 0.5% Triton X-100, 15 mM imidazole, 5 mM βME). The sample was loaded at a flow rate of 1 mL/min. The column was washed with 15 column volumes of buffer C (same as buffer B except with 0.2% Triton X-100). The protein was eluted with 5 column volumes of buffer D (same as buffer C except with 200 mM Imidazole).
NS3/4A protease complex-containing fractions were pooled and loaded on a desalting column Superdex-S200 pre-equilibrated with buffer D (25 mM HEPES, pH 7.5, 20% glycerol, 300 mM NaCl, 0.2% Triton X-100, 10 mM βME). Sample was loaded at a flow rate of 1 mL/min. NS3/4A protease complex-containing fractions were pooled and concentrated to approximately 0.5 mg/ml.
The enzyme was stored at −80° C., thawed on ice and diluted prior to use in assay buffer. […] The sequence of this peptide is loosely based on the NS4A/NS4B natural cleavage site for the HCV NS3 protease except there is an ester linkage rather than an amide bond at the cleavage site. The peptide substrate was incubated with one of the three recombinant NS3/4A protease complexes, in the absence or presence of a compound of the present invention, and the formation of fluorescent reaction product was followed in real time using a Cytofluor Series 4000.
The reagents were as follow: HEPES and Glycerol (Ultrapure) were obtained from GIBCO-BRL. Dimethyl Sulfoxide (DMSO) was obtained from Sigma. β-Mercaptoethanol was obtained from Bio Rad.
Assay buffer: 50 mM HEPES, pH 7.5; 0.15 M NaCl; 0.1% Triton; 15% Glycerol; 10 mM βME. Substrate: 2 μM final concentration (from a 2 mM stock solution in DMSO stored at −20° C.). HCV NS3/4A protease type 1a (1b), 2–3 nM final concentration (from a 5 μM stock solution in 25 mM HEPES, pH 7.5, 20% glycerol, 300 mM NaCl, 0.2% Triton-X100, 10 mM βME).
The assay was performed in a 96-well polystyrene black plate from Falcon.

Read-outs that look alike come from different tables or passages of the source.

Usually EC50 stands for the concentration needed to bring the measured effect to its halfway point. A higher EC50 goes with a need for much substance. What is called IC50 is the point on the concentration scale where inhibition reaches its midpoint. `C=C[C@@H]1C[C@]1(NC(=O)[C@@H]1C[C@@H](Oc2nccc3cc(OC)ccc23)CN1C(=O)[C@@H](NC(=O)OC(C)(C)C)C(C)(C)C)C(=O)NS(=O)(=O)C1(C)CC1` [Cmpd 301, (1-{4-(6-Methoxy-isoquinolin-1-yloxy)-2-[1-(1-methyl-cyclopropanesulfonylaminocarbonyl)-2-vinyl-cyclopropylcarbamoyl]-pyrrolidine-1-carbonyl}-2,2-dimethyl-propyl)-carbamic acid tert-butyl ester]: in assay [1], the EC50 was less than 100 nM. Besides, in assay [2] (read-out: IC50), the concentration for half-maximal inhibition (IC50) was less than 100 nM.

As to `C=C[C@@H]1C[C@]1(NC(=O)[C@@H]1C[C@@H](Oc2nccc3cc(OC)ccc23)CN1C(=O)[C@@H](NC(=O)NC(C)(C)CC)C(C)(C)C)C(=O)NS(=O)(=O)C1(C)CC1` [Cmpd 219], in assay [1], the EC50 is less than 100 nM. In assay [2] (read-out: IC50), the IC50 was less than 100 nM.

In assay [1], `C=C[C@@H]1C[C@]1(NC(=O)[C@@H]1C[C@@H](Oc2cc3c(Cl)nccc3cc2OC)CN1C(=O)[C@@H](NC(=O)OC(C)(C)C)C(C)(C)C)C(=O)NS(=O)(=O)C1(CC)CC1` [Cpd 110] gave a concentration for a half-maximal effect (EC50) of less than 100 nM. The 50% inhibitory concentration (IC50) in assay [2] (read-out: IC50) was less than 100 nM.

In assay [1], `C=C[C@@H]1C[C@]1(NC(=O)[C@@H]1C[C@@H](Oc2nc(-c3ccccc3)nc3ccccc23)CN1C(=O)[C@@H](NC(C)=O)C(C)(C)C)C(=O)NS(=O)(=O)C1(CC2CC2)CC1` [Cmpd 604] showed a concentration giving a half-maximal response (EC50) of 100 to 1000 nM. Moreover, the IC50 in assay [2] (read-out: IC50) is less than 100 nM.

`C=C[C@@H]1C[C@]1(NC(=O)C1C[C@@H](Oc2nc(-c3ccccc3)nc3ccccc23)CN1C(=O)[C@@H](NC(=O)OC(C)(C)C)C(C)(C)C)C(=O)NS(=O)(=O)C1(CC2CC2)CC1` (stereo partly shown) [Cmpd 600] yielded a concentration giving a half-maximal response (EC50) in assay [1] of less than 100 nM. In assay [2] (read-out: IC50), the concentration for half-maximal inhibition (IC50) is less than 100 nM.

In turn, `C=C[C@@H]1C[C@]1(NC(=O)[C@@H]1C[C@@H](Oc2nccc3c(Cl)cccc23)CN1C(=O)[C@@H](NC(=O)OC(C)C)C(C)(C)C)C(=O)NS(=O)(=O)C1(CC)CC1` [Cpd 111] yielded a concentration giving a half-maximal response (EC50) in assay [1] of less than 100 nM. For the same compound, the concentration for half-maximal inhibition (IC50) in assay [2] (read-out: IC50) was less than 100 nM.

The compound `C=C[C@@H]1C[C@]1(NC(=O)[C@@H]1C[C@@H](Oc2nccc3ccccc23)CN1C(=O)[C@@H](NC(=O)O[C@@H]1C[C@H](C)CC[C@H]1C(C)C)C(C)(C)C)C(=O)NS(=O)(=O)C1(Cc2ccccc2)CC1` [Cmpd 209] registered an EC50 in assay [1] of 1000 to 10000 nM. Further, the IC50 in assay [2] (read-out: IC50) was in the range of 10000 to 100000 nM.

In assay [1], `C=C[C@@H]1C[C@]1(NC(=O)[C@@H]1C[C@@H](Oc2nccc3ccccc23)CN1C(=O)[C@@H](NC(=O)OC(C)(C)C)C(C)(C)C)C(=O)NS(=O)(=O)C1(Cc2ccccc2)CC1` [Cmpd 401] displayed an EC50 of 100 to 1000 nM. Moreover, the IC50 in assay [2] fell in the range of 100 to 1000 nM.

In assay [1], `C=C[C@@H]1C[C@]1(NC(=O)[C@@H]1C[C@@H](Oc2nc(-c3ccccc3)nc3ccccc23)CN1C(=O)[C@@H](N)C(C)(C)C)C(=O)NS(=O)(=O)C1(CC2CC2)CC1` [Cmpd 602] registered an EC50 of 1000 to 10000 nM. The IC50 in assay [2] (read-out: IC50) fell in the range of 100 to 1000 nM.

In assay [1], `C=C[C@@H]1C[C@]1(NC(=O)[C@@H]1CC(Oc2ccnc(-c3cccs3)c2)CN1C(=O)[C@@H](NC(=O)OC1CCCC1)C(C)(C)C)C(=O)NS(=O)(=O)C1(Cc2ccccc2)CC1` (stereo partly shown) [Cmpd 701] showed an EC50 of 100 to 1000 nM. In assay [2] (read-out: IC50), the half-maximal inhibitory concentration (IC50) was less than 100 nM.

The compound `C=C[C@@H]1C[C@]1(NC(=O)[C@@H]1CC(Oc2ccnc(-c3cccs3)c2)CN1C(=O)[C@@H](NC(=O)OC1CCCC1)C(C)(C)C)C(=O)NS(=O)(=O)C1(CC2CC2)CC1` (stereo partly shown) [Cmpd 700] gave a half-maximal effective concentration (EC50) in assay [1] of less than 100 nM. Further, the concentration for half-maximal inhibition (IC50) in assay [2] (read-out: IC50) was less than 100 nM.

The values above are taken from US7135462B2, “Hepatitis C virus inhibitors” (priority 2003, dated 2006).
